According to patent publication US20250034116A1, “1,4-DIHETEROCYCLIC SUBSTITUTED AROMATIC RING OR AROMATIC HETEROCYCLIC COMPOUND AND USE THEREOF” (BeBetter Med Inc., priority 2022, published 2025):

What was measured:
[1] = tested on: CYP enzymes in human liver microsomes (HLM); assay: Inhibition of 20-HETE production in human liver microsomes (HLM); type: biochemical
Method in brief: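 Liver microsomes (human or mouse) or recombinant CYP4F2 or CYP4A11 in potassium phosphate buffer mixed with compound, then with 400 μM substrate solution (stock). After 10 min preincubation at 37 °C, reaction started with 6 mM NADPH solution (stock) and run 25 min at 37 °C. 20-HETE formation quantified by LC-MS/MS; IC50 from a four-parameter Hill fit, with percent inhibition also reported at 1000, 500 or 100 nM.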

[2] = tested on: CYP enzymes in rat liver microsomes (RLM); assay: Inhibition of 20-HETE production in rat liver microsomes (RLM); type: biochemical
Method in brief: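 Test compounds were dissolved in DMSO, diluted in acetonitrile/DMSO (3:1), and 2 μl was mixed with 100 μl potassium phosphate buffer containing rat liver microsomes in a 96-well plate. Duplicate 30 μl aliquots received 15 μl of 400 μM substrate, were preheated at 37° C. for 10 minutes, then started with 15 μl of 6 mM NADPH for 25 minutes. LC-MS/MS measured 20-HETE formation.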

[3] = target: recombinant CYP4F2 (rCYP4F2) (Homo sapiens (Human), UniProt P78329); assay: Inhibition of 20-HETE production by recombinant CYP4F2; type: biochemical; conditions: read-out: rCYP4F2 (% inh @ 100 nM)
recombinant CYP4F2 (rCYP4F2), sequence (P78329 5-520): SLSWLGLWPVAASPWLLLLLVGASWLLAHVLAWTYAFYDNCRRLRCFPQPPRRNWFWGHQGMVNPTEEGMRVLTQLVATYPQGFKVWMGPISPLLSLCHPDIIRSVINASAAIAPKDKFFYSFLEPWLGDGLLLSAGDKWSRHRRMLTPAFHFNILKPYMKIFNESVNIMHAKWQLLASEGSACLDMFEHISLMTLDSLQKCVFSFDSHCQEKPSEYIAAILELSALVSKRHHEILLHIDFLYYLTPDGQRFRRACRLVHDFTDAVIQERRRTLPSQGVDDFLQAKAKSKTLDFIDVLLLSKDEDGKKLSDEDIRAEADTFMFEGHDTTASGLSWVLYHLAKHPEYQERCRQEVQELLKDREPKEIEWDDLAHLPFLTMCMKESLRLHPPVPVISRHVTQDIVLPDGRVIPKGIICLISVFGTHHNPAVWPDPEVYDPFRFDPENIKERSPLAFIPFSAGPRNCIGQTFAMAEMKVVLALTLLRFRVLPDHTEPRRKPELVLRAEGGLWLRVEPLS
Method: (§1) Experimental principle: The inhibitory activity of 20-HETE production is evaluated by testing the inhibitory effects of the compound on human liver microsomes (HLM), rat liver microsomes (RLM), mouse liver microsomes (MLM), or […] CYP4 subtype enzymes (CYP4F2). This assay employs HLM, RLM, or MLM along with recombinant CYP4F2 (rCYP4F2) and recombinant CYP4A11 (rCYP4A11), which are […] CYP4 subtype enzymes, to detect the effects of the test compound at different concentrations on the metabolic rate of enzyme-specific substrates, to determine the inhibitory effects of the test compound on CYP enzymes in HLM, RLM, or MLM.
(§2) Experimental methods: Dissolve the test compound in DMSO, and subsequently dilute it with an acetonitrile and DMSO mixture (3:1). Add 2 μl of varying concentrations of the test compound and 100 μl of potassium phosphate buffer containing either liver microsomes or recombinant enzymes to a 96-well plate. After mixing well, transfer 30 μl to another well (in duplicate), add 15 μl of 400 μM substrate solution, and mix well again. Preheat at 37° C. for 10 minutes, and then add 15 μl of 6 mM NADPH and incubate at 37° C. for 25 minutes. After 25 minutes, add 160 μl of acetonitrile solution (containing 0.1 μg/ml internal standard) to stop the reaction. Mix well, centrifuge at 3500 g for 15 minutes, and then analyze the supernatant using LC-MS/MS.
(§3) Plot the compound concentration on the x-axis and the inhibition rate on the y-axis to draw the curve. Use GraphPad Prism 5 software to fit the curve and calculate the IC50. The formula is Y=Bottom+(Top−Bottom)/(1+10^((Log IC50−X)×HillSlope)). X represents the logarithmic concentration of the inhibitor, and Y represents the relative enzyme activity at a given inhibitor concentration (relative to the condition without the inhibitor).
(§4) Calculate the inhibition percentages at concentrations of 1000 nM, 500 nM, or 100 nM as well as the half-maximal inhibitory concentration (IC50) of the test compound from the above experiment.

[4] = target: recombinant CYP4A11 (rCYP4A11) (Homo sapiens (Human), UniProt Q02928); assay: Inhibition of 20-HETE production by recombinant CYP4A11; type: biochemical; conditions: read-out: rCYP4A11 (% inh @ 100 nM)
recombinant CYP4A11 (rCYP4A11), sequence (Q02928 5-519): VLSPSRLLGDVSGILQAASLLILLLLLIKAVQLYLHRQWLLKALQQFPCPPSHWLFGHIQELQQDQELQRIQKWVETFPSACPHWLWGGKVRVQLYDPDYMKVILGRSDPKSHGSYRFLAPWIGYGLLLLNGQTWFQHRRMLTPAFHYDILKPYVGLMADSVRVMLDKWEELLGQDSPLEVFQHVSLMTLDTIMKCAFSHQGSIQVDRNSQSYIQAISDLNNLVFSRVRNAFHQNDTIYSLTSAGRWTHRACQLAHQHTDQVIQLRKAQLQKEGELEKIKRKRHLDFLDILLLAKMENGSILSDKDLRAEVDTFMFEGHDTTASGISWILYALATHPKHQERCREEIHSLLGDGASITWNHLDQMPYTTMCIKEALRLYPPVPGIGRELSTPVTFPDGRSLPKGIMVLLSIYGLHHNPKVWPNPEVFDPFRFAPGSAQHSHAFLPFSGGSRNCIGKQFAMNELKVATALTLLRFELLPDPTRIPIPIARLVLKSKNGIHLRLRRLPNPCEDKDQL
Method: as §1, §2, §3, §4

[5] = tested on: CYP enzymes in mouse liver microsomes (MLM); assay: Inhibition of 20-HETE production in mouse liver microsomes (MLM); type: biochemical
Method: as §1, §2, §3, §4

[6] = Pharmacokinetic (PK) experiment, oral administration in rats; type: in vivo, Male SD rats; conditions: 20 mg/kg; for AUC(0-inf) / Cmax / Tmax / half-life / AUC(0-t): male, SD, rat, plasma; for AUC(0-t): read-out: AUC0-24
Method: Male SD rats, weighing 180-250 grams, were fasted overnight before testing. The test compound was dissolved in 30% sulfobutylether-β-cyclodextrin and administered orally at a dose of 20 mg/kg. Blood was collected from the tail vein at 15 minutes, 30 minutes, and 1, 2, 4, 6, 8, and 24 hours after administration. Approximately 0.3 ml of blood was collected at each time point, placed in a centrifuge tube containing K2-EDTA, and centrifuged (2000 g for 10 minutes at 4° C.) to take the plasma, which was then stored in an ultra-low temperature freezer at −70° C. or below. A 50 μL plasma sample was mixed with 135 μL of acetonitrile (containing 0.5 μg/mL internal standard) and vortexed for protein precipitation. After centrifugation, the supernatant was taken for LC-MS/MS analysis.

SMILES	HLM (% inh @ 500 nM) [1] [%]	RLM (% inh @ 500 nM) [2] [%]	inhibition at 0.1 µM [3] [%]	inhibition at 0.1 µM [4] [%]	IC50 [2] [nM]	IC50 [1] [nM]	IC50 [5] [nM]	AUC(0-inf) [6] [ng·h/mL]	Cmax [6] [ng/mL]	Tmax [6] [h]	half-life [6] [h]	AUC(0-t) [6] [ng·h/mL]	absorption and blood exposure after oral administration (in words) [6]
O=C1CCCCN1CC1CCN(c2ccc(-c3cn[nH]c3)cc2)CC1 [Compound 25, 1-((1-(4-(1H-pyrazol-4-yl)phenyl)piperidin-4-yl)methyl)piperidin-2-one]	80.65	61.49	56	30.6	159	29.3	766	–	–	–	–	–	–
O=C1CCCN1CC1CCN(c2ccc(-c3ccno3)cc2)CC1 [Compound 34, 1-((1-(4-(isoxazol-5-yl)phenyl)piperidin-4-yl)methyl)pyrrolidin-2-one]	71.06	83.75	49.7	1.59	–	–	–	–	–	–	–	–	–
O=C1CCCN1CC1CCN(c2ccc(-c3cn[nH]c3)cc2C(F)F)CC1 [Compound 19, 1-((1-(2-(difluoromethyl)-4-(1H-pyrazol-4-yl)phenyl)piperidin-4-yl)methyl)pyrrolidin-2-one]	87.01	59.42	61.4	58.7	434	–	–	–	–	–	–	–	–
O=C1CCCN1CC1CCN(c2ccc(-c3cn[nH]c3)cc2Cl)CC1 [Compound 11, 1-((1-(2-chloro-4-(1H-pyrazol-4-yl)phenyl)piperidin-4-yl)methyl)pyrrolidin-2-one]	80.98	–	59.7	46.3	157	–	–	–	–	–	–	–	–
O=C1CCCCN1CC1CCN(c2c(F)cc(-c3cn[nH]c3)cc2F)CC1 [Compound 27, 1-((1-(2,6-difluoro-4-(1H-pyrazol-4-yl)phenyl)piperidin-4-yl)methyl)piperidin-2-one]	88.87	–	78.4	52.3	23.3	26	1150	–	–	–	–	–	–
O=C1CCCN1CC1CCN(c2ccc(-c3cn[nH]c3)c(F)c2)CC1 [Compound 3, 1-((1-(3-fluoro-4-(1H-pyrazol-4-yl)phenyl)piperidin-4-yl)methyl)pyrrolidin-2-one]	75.59	–	64.2	27.8	322	–	–	–	–	–	–	–	–
O=C(NCC1CCN(c2ccc(-c3cn[nH]c3)cc2)CC1)c1ccccc1 [Compound 47, N-((1-(4-(1H-pyrazol-4-yl)phenyl)piperidin-4-yl)methyl)benzamide]	–	35.64	66	41.1	–	42.7	–	–	–	–	–	–	–

More lines, main results first:

HLM (% inh @ 500 nM) [1] [%]	RLM (% inh @ 500 nM) [2] [%]	inhibition at 0.1 µM [3] [%]	inhibition at 0.1 µM [4] [%]	IC50 [2] [nM]	IC50 [1] [nM]	IC50 [5] [nM]	AUC(0-inf) [6] [ng·h/mL]	Cmax [6] [ng/mL]	Tmax [6] [h]	half-life [6] [h]	AUC(0-t) [6] [ng·h/mL]	SMILES	absorption and blood exposure after oral administration (in words) [6]
72.44	47.19	52.8	17.5	–	–	–	–	–	–	–	–	O=C1CCCN1CC1CCN(c2ccc(-c3cn[nH]c3)cc2)C1 (stereo not shown) [Compound 74, 1-((1-(4-(1H-pyrazol-4-yl)phenyl)pyrrolidin-3-yl)methyl)pyrrolidin-2-one]	–
79.80	44.31	42.4	23.3	521	–	–	–	–	–	–	–	O=C(C1CCN(c2ccc(-c3cn[nH]c3)cc2)CC1)N1CCCC1 [Compound 49, (1-(4-(1H-pyrazol-4-yl)phenyl)piperidin-4-yl)(pyrrolidin-1-yl) methanone]	–
96.45	–	–	–	9.09	19.1	735	107000	11400	2.5	2.22	107000	O=C(N1CC=C(c2ccc(-c3cn[nH]c3)c(F)c2F)CC1)N1CCCC1 [Compound 91, (4-(2,3-difluoro-4-(1H-pyrazol-4-yl)phenyl)-3,6-dihydropyridin-1(2H)-yl)(pyrrolidin-1-yl) methanone]	well absorbed and exhibit high blood exposure
81.86	–	73.8	40.6	86.4	20	–	–	–	–	–	–	O=C(Nc1ccc2ccccc2c1)C1CCN(c2ccc(-c3cn[nH]c3)cc2)CC1 [Compound 64, 1-(4-(1H-pyrazol-4-yl)phenyl)-N-(naphthalen-2-yl)piperidine-4-carboxamide]	–
69.53	64.35	70.5	9.25	–	–	–	486000	26800	3.33	12.5	364000	O=C(C1CCN(c2ccc(-c3cn[nH]c3)cc2)CC1)N1Cc2ccccc2C1 [Compound 66, (1-(4-(1H-pyrazol-4-yl)phenyl)piperidin-4-yl)(isoindolin-2-yl) methanone]	well absorbed and exhibit high blood exposure
90.91	64.17	–	–	222	9.53	1010	44700	6680	1.67	4.03	44100	O=S1(=O)CCCCN1CC1CCN(c2ccc(-c3cn[nH]c3)cc2F)CC1 [Compound 163, 2-((1-(2-fluoro-4-(1H-pyrazol-4-yl)phenyl)piperidin-4-yl)methyl)-1,2-thiazinane 1,1-dioxide]	well absorbed and exhibit high blood exposure
89.73	–	70.1	50.6	5.36	19.1	1330	86000	7880	2.33	2.51	85800	O=C(N1CCCC1)N1CCN(c2ccc(-c3cn[nH]c3)c(F)c2F)CC1 [Compound 72, (4-(2,3-difluoro-4-(1H-pyrazol-4-yl)phenyl)piperazin-1-yl)(pyrrolidin-1-yl) methanone]	well absorbed and exhibit high blood exposure
85.05	50.28	79.2	25.8	–	19.6	–	–	–	–	–	–	O=C(Nc1ccc2occc2c1)C1CCN(c2ccc(-c3cn[nH]c3)cc2)CC1 [Compound 62, 1-(4-(1H-pyrazol-4-yl)phenyl)-N-(benzofuran-5-yl)piperidine-4-carboxamide]	–
81.76	49.97	61.7	8.98	–	–	–	–	–	–	–	–	O=C(NC1CCCCC1)C1CCN(c2ccc(-c3cn[nH]c3)cc2)CC1 [Compound 57, 1-(4-(1H-pyrazol-4-yl)phenyl)-N-cyclohexylpiperidine-4-carboxamide]	–
79.09	38.16	54.6	35.6	598	51.8	> 10000	2640	562	1.5	3.53	2630	O=C1CCCN1Cc1ccc(C2CCN(c3cn[nH]c3)CC2)cc1 [Reference 83, reference compound]	–
